Assay results taken from the supplement of paper PMC12076712.

What was measured:
Assay in all cases: pIC50, kinobeads binding competition
UniProt Q5VT25 = biological target: UniProt Q5VT25
How it was run: (§1)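 Either living Jurkat cells (60 min at 37 °C, then lysis) or lysates (60 min at 4 °C) were treated with nine compound concentrations from a top of 30 μM, in 1:4 steps for cells and 1:5 steps for lysates. The lysates were from Jurkat cells or a 1:1:1:1 mix of HEK293, K-562, HepG2 and placenta. Kinobeads-bound proteins were digested and quantified by TMT10 LC-MS/MS. pIC50 was calculated by logistic dose-response fitting (R drc package) of fold changes relative to vehicle, in biological duplicates.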

EPHB3 = biological target: T1, EPHB3 (UniProt P54753); conditions: cell material: Lysate mix
T1 sequence (whole entry): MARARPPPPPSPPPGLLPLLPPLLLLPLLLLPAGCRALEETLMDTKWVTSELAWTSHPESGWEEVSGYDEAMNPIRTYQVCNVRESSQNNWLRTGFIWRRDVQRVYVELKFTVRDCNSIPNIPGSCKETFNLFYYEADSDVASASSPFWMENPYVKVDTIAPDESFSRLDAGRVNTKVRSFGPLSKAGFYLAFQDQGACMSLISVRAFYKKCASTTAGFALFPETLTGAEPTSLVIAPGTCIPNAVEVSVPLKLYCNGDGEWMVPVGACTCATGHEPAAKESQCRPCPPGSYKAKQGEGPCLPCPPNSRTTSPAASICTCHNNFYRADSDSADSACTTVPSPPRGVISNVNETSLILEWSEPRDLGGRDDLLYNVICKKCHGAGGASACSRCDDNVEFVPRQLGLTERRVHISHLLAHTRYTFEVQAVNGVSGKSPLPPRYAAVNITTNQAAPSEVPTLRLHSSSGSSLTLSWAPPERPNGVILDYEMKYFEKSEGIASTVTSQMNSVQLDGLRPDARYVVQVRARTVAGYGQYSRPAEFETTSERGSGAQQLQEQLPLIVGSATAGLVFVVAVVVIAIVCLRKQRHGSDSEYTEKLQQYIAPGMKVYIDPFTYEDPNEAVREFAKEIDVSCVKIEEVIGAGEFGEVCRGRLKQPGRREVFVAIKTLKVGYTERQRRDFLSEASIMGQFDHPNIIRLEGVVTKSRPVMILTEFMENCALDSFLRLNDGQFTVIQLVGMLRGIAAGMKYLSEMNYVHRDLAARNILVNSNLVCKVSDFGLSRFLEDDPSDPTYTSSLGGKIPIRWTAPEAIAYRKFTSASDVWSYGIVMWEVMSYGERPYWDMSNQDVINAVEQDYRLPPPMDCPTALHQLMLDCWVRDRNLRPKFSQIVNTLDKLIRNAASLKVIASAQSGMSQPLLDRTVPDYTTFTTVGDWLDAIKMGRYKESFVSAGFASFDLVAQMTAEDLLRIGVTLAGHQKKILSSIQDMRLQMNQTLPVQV
How it was run: as §1

JAK1 = JAK1 (UniProt P23458)
Chain of JAK1 (P23458 whole entry): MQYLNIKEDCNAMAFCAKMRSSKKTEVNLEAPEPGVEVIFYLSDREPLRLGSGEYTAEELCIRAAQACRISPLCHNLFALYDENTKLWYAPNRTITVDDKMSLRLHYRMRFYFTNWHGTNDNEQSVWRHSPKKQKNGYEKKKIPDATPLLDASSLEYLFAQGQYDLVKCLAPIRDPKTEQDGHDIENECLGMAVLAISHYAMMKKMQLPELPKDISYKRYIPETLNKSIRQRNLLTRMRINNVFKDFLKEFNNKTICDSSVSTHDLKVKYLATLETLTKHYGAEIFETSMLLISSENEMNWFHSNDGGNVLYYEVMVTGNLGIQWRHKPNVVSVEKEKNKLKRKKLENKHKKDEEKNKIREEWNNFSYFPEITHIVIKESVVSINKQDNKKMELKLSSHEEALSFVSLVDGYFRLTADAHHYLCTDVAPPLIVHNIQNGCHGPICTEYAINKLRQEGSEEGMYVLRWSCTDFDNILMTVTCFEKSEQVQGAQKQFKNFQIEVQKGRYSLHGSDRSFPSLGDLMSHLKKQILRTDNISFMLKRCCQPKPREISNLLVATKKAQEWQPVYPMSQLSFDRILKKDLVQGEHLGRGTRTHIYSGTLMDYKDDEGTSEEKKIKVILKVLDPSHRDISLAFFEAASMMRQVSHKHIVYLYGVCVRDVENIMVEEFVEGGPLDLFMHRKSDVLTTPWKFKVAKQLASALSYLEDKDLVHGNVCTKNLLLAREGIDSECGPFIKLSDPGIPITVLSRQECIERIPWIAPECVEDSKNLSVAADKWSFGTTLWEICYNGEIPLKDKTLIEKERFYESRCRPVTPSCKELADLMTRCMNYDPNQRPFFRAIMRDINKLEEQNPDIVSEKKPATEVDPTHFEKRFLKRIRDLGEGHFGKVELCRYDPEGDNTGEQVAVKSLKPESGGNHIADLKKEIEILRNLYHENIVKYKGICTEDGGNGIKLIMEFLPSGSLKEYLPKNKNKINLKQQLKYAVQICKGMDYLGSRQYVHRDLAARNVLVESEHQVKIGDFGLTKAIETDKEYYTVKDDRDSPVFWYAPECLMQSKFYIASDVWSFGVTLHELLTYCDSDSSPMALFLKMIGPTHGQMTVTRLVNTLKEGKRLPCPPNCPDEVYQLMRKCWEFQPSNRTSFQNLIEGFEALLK
How it was run: as §1

PLK1 = PLK1 (UniProt P53350)
How it was run: as §1

MARK2 = MARK2 (UniProt Q7KZI7)
Chain of MARK2 (Q7KZI7 whole entry): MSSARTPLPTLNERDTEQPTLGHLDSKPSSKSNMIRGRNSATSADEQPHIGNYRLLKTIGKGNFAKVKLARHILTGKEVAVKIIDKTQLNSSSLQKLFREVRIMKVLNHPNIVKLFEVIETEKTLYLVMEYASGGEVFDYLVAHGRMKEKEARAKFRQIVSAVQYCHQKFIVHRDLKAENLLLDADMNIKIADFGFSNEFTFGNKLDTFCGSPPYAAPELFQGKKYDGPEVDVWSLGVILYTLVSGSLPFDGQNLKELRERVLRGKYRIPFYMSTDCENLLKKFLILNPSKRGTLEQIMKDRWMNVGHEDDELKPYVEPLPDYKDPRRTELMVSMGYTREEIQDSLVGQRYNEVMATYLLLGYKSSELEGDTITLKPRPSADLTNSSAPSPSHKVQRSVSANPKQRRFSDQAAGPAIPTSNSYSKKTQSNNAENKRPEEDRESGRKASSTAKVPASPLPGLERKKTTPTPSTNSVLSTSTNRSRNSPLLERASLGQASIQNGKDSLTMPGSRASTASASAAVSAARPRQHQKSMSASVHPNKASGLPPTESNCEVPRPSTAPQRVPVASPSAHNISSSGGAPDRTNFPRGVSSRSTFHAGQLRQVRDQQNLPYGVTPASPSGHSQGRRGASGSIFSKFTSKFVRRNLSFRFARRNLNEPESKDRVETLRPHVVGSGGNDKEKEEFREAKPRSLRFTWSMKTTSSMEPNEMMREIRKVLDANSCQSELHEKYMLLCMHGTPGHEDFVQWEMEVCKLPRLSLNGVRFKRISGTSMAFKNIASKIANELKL
How it was run: as §1

UniProt Q05397 = biological target: UniProt Q05397
Chain of UniProt Q05397 (Q05397 whole entry, looked up): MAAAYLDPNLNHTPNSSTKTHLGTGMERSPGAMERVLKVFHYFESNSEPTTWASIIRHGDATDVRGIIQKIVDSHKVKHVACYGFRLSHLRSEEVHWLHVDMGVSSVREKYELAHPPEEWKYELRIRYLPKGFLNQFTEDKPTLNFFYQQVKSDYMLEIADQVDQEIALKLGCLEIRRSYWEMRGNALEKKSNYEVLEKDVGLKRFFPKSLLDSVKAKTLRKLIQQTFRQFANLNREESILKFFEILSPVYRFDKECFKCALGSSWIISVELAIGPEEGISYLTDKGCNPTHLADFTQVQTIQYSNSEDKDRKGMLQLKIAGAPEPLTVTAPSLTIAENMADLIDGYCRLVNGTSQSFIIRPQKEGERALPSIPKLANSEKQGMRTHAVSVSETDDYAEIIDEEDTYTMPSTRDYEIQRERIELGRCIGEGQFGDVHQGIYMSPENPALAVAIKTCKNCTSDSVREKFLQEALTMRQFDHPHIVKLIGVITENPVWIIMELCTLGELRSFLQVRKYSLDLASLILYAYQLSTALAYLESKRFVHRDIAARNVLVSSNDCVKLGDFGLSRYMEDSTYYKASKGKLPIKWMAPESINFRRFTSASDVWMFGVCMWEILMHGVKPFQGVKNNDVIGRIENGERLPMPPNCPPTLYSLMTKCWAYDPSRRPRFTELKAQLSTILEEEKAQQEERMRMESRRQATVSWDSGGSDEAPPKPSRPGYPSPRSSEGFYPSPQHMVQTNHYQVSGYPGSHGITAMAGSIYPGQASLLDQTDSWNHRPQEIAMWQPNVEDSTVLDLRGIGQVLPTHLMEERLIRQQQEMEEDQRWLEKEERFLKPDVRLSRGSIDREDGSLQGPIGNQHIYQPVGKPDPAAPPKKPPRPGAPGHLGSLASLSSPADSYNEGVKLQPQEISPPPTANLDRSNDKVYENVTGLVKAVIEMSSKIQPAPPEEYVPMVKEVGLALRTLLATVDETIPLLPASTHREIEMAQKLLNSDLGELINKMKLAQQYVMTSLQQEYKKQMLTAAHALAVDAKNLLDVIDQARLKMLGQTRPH
How it was run: as §1

EPHA5 = EPHA5 (UniProt P54756); conditions: cell material: Lysate mix
Chain of EPHA5 (P54756 whole entry): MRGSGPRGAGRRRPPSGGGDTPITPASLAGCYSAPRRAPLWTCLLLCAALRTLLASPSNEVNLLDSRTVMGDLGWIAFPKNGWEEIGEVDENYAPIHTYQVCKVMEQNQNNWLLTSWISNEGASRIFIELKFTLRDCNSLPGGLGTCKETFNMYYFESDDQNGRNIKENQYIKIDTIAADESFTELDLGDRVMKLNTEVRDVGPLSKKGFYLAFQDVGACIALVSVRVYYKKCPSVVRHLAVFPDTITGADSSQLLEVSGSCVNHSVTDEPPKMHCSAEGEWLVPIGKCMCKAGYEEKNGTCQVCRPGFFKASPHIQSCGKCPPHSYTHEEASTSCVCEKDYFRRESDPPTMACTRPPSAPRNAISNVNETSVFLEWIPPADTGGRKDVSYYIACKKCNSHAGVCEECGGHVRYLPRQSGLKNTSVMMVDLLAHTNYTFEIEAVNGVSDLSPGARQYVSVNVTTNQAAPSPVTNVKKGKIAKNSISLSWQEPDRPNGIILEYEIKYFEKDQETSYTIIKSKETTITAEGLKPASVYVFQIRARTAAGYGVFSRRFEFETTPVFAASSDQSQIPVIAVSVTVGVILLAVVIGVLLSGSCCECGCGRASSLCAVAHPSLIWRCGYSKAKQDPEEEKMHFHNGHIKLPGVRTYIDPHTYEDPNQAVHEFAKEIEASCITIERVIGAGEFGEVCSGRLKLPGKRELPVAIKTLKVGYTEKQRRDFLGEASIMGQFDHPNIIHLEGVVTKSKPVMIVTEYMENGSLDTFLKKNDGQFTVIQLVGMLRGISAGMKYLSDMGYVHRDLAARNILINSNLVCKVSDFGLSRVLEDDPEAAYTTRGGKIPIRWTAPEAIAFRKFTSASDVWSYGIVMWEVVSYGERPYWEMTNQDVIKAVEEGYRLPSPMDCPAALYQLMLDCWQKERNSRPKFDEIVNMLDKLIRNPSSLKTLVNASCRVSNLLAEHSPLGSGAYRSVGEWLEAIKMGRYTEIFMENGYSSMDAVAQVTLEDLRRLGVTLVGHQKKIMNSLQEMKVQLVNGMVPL
How it was run: as §1

NEK7 = NEK7 (UniProt Q8TDX7)
Chain of NEK7 (Q8TDX7 whole entry, looked up): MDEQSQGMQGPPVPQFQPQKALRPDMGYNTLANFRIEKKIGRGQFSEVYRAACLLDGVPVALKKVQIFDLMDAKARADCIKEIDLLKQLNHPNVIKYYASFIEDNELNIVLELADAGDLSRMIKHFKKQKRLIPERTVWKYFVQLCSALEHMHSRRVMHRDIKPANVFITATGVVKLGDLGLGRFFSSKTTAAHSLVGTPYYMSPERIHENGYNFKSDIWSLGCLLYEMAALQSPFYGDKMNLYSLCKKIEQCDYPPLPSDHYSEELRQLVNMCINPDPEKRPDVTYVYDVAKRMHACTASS
How it was run: as §1

IRAK4 = biological target: T2, IRAK4 (UniProt Q9NWZ3)
T2 sequence (whole entry): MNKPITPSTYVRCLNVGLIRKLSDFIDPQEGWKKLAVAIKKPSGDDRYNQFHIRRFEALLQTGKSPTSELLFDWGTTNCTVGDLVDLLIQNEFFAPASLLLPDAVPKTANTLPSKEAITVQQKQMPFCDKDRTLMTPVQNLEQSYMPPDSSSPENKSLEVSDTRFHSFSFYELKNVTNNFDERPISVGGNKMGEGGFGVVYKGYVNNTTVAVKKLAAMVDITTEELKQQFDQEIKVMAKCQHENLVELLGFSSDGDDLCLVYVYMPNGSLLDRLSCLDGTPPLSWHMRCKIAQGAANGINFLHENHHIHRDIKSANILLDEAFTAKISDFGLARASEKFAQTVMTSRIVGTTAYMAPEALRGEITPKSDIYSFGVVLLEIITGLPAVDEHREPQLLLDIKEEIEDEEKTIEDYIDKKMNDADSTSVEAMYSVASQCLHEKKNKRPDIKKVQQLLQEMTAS
How it was run: as §1

UniProt O75716 = biological target: UniProt O75716
Chain of UniProt O75716 (O75716 whole entry): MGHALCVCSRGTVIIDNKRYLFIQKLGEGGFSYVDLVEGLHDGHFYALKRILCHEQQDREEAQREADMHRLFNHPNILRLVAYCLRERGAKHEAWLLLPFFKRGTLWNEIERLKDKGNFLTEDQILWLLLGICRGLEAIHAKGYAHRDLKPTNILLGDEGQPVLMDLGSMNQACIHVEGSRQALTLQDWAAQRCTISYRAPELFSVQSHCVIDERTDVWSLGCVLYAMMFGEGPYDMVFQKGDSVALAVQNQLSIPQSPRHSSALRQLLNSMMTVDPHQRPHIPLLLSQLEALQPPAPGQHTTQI
How it was run: as §1

UniProt Q9UEE5 = biological target: T3, UniProt Q9UEE5
T3 sequence (whole entry): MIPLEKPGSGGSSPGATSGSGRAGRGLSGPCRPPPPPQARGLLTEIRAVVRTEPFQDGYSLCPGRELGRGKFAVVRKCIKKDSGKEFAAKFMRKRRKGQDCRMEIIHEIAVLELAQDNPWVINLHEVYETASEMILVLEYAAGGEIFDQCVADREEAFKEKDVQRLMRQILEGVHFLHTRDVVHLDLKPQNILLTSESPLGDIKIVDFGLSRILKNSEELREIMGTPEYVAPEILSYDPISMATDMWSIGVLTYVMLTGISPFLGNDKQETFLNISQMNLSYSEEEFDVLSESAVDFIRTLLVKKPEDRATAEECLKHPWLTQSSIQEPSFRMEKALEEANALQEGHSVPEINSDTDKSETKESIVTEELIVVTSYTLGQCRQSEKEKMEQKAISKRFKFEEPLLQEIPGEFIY
How it was run: as §1

UniProt P78356 = biological target: T4, UniProt P78356
T4 sequence (whole entry): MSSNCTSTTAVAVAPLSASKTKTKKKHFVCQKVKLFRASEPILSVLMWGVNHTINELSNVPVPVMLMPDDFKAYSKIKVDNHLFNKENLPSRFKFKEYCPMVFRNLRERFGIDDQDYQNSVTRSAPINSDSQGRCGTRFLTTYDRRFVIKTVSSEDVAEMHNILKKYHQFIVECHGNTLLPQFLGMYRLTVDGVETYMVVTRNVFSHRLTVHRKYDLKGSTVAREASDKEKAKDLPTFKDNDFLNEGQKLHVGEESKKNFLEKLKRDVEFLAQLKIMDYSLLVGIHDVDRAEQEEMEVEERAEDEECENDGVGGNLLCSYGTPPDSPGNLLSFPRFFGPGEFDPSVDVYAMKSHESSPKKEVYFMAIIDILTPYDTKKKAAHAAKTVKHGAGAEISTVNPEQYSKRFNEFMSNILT
How it was run: as §1

Row | Compound | pIC50 (UniProt Q5VT25; cell material: Jurkat cells) | pIC50 (UniProt Q5VT25; cell material: Jurkat lysate) | pIC50 (UniProt Q5VT25; cell material: Lysate mix) | pIC50 (EPHB3) | pIC50 (JAK1; cell material: Jurkat cells) | pIC50 (JAK1; cell material: Jurkat lysate) | pIC50 (JAK1; cell material: Lysate mix) | pIC50 (PLK1; cell material: Jurkat cells) | pIC50 (PLK1; cell material: Jurkat lysate) | pIC50 (PLK1; cell material: Lysate mix) | pIC50 (MARK2; cell material: Jurkat cells) | pIC50 (MARK2; cell material: Jurkat lysate) | pIC50 (MARK2; cell material: Lysate mix) | pIC50 (UniProt Q05397; cell material: Jurkat cells) | pIC50 (UniProt Q05397; cell material: Jurkat lysate) | pIC50 (UniProt Q05397; cell material: Lysate mix) | pIC50 (EPHA5) | pIC50 (NEK7; cell material: Jurkat cells) | pIC50 (NEK7; cell material: Jurkat lysate) | pIC50 (NEK7; cell material: Lysate mix) | pIC50 (IRAK4; cell material: Jurkat cells) | pIC50 (IRAK4; cell material: Jurkat lysate) | pIC50 (IRAK4; cell material: Lysate mix) | pIC50 (UniProt O75716; cell material: Jurkat cells) | pIC50 (UniProt O75716; cell material: Jurkat lysate) | pIC50 (UniProt O75716; cell material: Lysate mix) | pIC50 (UniProt Q9UEE5; cell material: Jurkat cells) | pIC50 (UniProt Q9UEE5; cell material: Jurkat lysate) | pIC50 (UniProt Q9UEE5; cell material: Lysate mix) | pIC50 (UniProt P78356; cell material: Jurkat lysate) | pIC50 (UniProt P78356; cell material: Lysate mix)
1 | C#CCNC(=O)c1cc(Nc2cc(C3CC3)[nH]n2)nc(N2CCN(Cc3ccc(S(=O)(=O)F)cc3)CC2)n1 | 5.28 | < 4.52 | < 4.52 | < 4.52 | 5.18 | < 4.52 | < 4.52 | 5.83 | < 4.52 | < 4.52 | 5.92 | < 4.52 | < 4.52 | < 4.52 | < 4.52 | < 4.52 | < 4.52 | 6.88 | < 4.52 | < 4.52 | 6.03 | 4.62 | 5.06 | 5.82 | 4.92 | 5.32 | 5.42 | < 4.52 | < 4.52 | < 4.52 | < 4.52
2 | C#CCNC(=O)c1cc(Nc2cc(C)[nH]n2)nc(N2CCN(Cc3ccc(S(=O)(=O)F)cc3)CC2)n1 | – | – | < 4.52 | < 4.52 | – | – | < 4.52 | – | – | < 4.52 | – | – | < 4.52 | – | – | < 4.52 | < 4.52 | – | – | < 4.52 | – | – | < 4.52 | – | – | 4.89 | – | – | < 4.52 | – | < 4.52
3 | Cc1cc(Nc2cc(C(=O)NCCNC(=O)OC3CC/C=C/CCC3)nc(N3CCN(Cc4ccc(S(=O)(=O)F)cc4)CC3)n2)n[nH]1 (centres undefined) | – | – | < 4.52 | < 4.52 | – | – | < 4.52 | – | – | < 4.52 | – | – | < 4.52 | – | – | < 4.52 | < 4.52 | – | – | < 4.52 | – | – | < 4.52 | – | – | < 4.52 | – | – | < 4.52 | – | < 4.52
4 | O=C(NCCNC(=O)c1cc(Nc2cc(C3CC3)[nH]n2)nc(N2CCN(Cc3ccc(S(=O)(=O)F)cc3)CC2)n1)OC1CC/C=C/CCC1 (centres undefined) | < 4.52 | < 4.52 | < 4.52 | < 4.52 | < 4.52 | < 4.52 | < 4.52 | 5.85 | < 4.52 | < 4.52 | 5.04 | < 4.52 | < 4.52 | < 4.52 | < 4.52 | < 4.52 | < 4.52 | 6.85 | < 4.52 | < 4.52 | 5.24 | < 4.52 | < 4.52 | 4.81 | < 4.52 | < 4.52 | – | < 4.52 | < 4.52 | < 4.52 | < 4.52
5 | CCNC(=O)c1cc(Nc2cc(C)[nH]n2)nc(N2CCN(Cc3ccc(S(=O)(=O)F)cc3)CC2)n1 | – | – | < 4.52 | < 4.52 | – | – | < 4.52 | – | – | < 4.52 | – | – | < 4.52 | – | – | < 4.52 | < 4.52 | – | – | < 4.52 | – | – | < 4.52 | – | – | 4.87 | – | – | < 4.52 | – | < 4.52
6 | CCNC(=O)c1cc(Nc2cc(C3CC3)[nH]n2)nc(N2CCN(Cc3ccc(S(=O)(=O)F)cc3)CC2)n1 | – | – | < 4.52 | < 4.52 | – | – | < 4.52 | – | – | < 4.52 | – | – | < 4.52 | – | – | < 4.52 | < 4.52 | – | – | < 4.52 | – | – | 5.19 | – | – | 5.46 | – | – | < 4.52 | – | < 4.52
